Experimental data as given in patent US11071727B2, “Therapeutic targeting of proteolytic cleavage of the mixed lineage leukemia gene product (MLL1) by taspase1 using kinase inhibitors” (Northwestern University, priority 2018, dated 2021).

How the values were obtained:
MLL1 chromatin occupancy = test: ChIP-seq of MLL1 occupancy in 293T cells; format: cell-based, human; details: relative to DMSO control
Method: (§1) FIG. 6. CKII inhibition increases genome-wide MLL occupancy and excludes SEC recruitment in MLL leukemia cells. (A) and (B) MLL1C occupancy in CX-4945 or TTP22 treated cells were shown relative to DMSO control. […] (C) Track examples of the MLL1 occupancy at the promoter regions of ELF2 and C6orf211. (D) CX-4945 inhibition of leukemia cell proliferation. Multiple MLL leukemia (orange lines) and non-MLL leukemia (blue lines) were cultured with different doses of CX-4945 for 3 days. Cell number was determined by cell counter and normalized to DMSO control. (E) SEM cells were treated with 0, 5 or 10 μM of CX-4945 for 30 hours and western blot was performed to determine the MLL1 full-length protein levels and MLL-AF4 fusion protein levels. (F) MLL-AFF1, AFF4 and ELL2 occupancies were decreased by CX-4945 treatment in SEM cells.
(§2) ChIP-seq Analysis. 5×10^7 cells were used for each ChIP assay, as performed as previously described (Chen et al. 2015). Peaks were called with MACS v1.4.2 (Zhang et al. 2008) using default parameters and were annotated by the HOMER software (Heinz et al. 2010). Metaplots were generated using ngsplot (Shen et al. 2014). […] Differential occupancy of MLL1 was evaluated by edgeR, and peaks with Benjamini-Hochburg adjusted p-values less than 0.05 were considered to be differentially occupied. […]

[1] = tested on: MLL leukemia and non-MLL leukemia cells; test: Leukemia cell proliferation by cell counting; format: cell-based, human; details: panel of MLL and non-MLL leukemia cell lines, increasing concentrations, 3 days
Method: as §1
Cell culture. All of the cell lines were purchased from the American Type Culture Collection (Rockville, Md.). 293T, MCF7 and HCT116 cell lines were maintained in Dulbecco's modified Eagle's medium (DMEM) (Gibco, Gaithersburg, Md.) supplemented with 10% fetal bovine serum (FBS) (Gibco) at 37° with 5% CO2. SEM was maintained in IMDM with 10% FBS. […]
Cell Proliferation Assay. Cell proliferation was measured by cell counting using the Vi-CELL™ Cell Counter (Beckman Coulter Life Sciences, Indianapolis, Ind.). […]

[2] = tested on: MLL-AFF1, AFF4 and ELL2 occupancy; test: ChIP-seq of MLL-AFF1, AFF4 and ELL2 occupancy in SEM cells; format: cell-based, human
Method: as §1, §2

MLL-AF9 leukemia = test: MLL-AF9 syngeneic leukemia mouse model; format: in vivo
Method: FIG. 7. CKII inhibition delays the leukemia progression and improves survival of MLL-AF9 mice and MOLM13 human leukemia mice. (A) Timeline of the MLL-AF9 leukemia mouse model and CKII inhibitor treatment. Drug treatments were started at day 10 after transplantation. (B) Kaplan-Meier survival curves of secondary transplanted C57BL/6 mice after vehicle and CX-4945 treatment at day 10. Vehicle or CX-4945 (50 mg/kg or 75 mg/kg) were administered twice daily by oral gavage for a total of twenty treatments. Leukemia was confirmed at the endpoint for each transplant mouse. The number (n) indicates the number of mice in each group. The p values were calculated using the log rank test. (C) Timeline of the MOLM13 human leukemia xenograft mice. Drug treatments were started at day 5 after transplantation. (D) Kaplan-Meier survival curves of NSGS mice after vehicle and CX-4945 treatment. Vehicle or CX-4945 (50 mg/kg) were administered twice daily by oral gavage for a total of twenty treatments. Leukemia was confirmed at the endpoint for each transplant mouse by flow cytometry, H&E staining and histology analysis. The number (n) indicates the number of mice in each group. The p value was calculated using the log rank test. (E) Taspase1 cleavage regulation of MLL1 mediated by CKII phosphorylation. MLL1 cleavage by taspase1 primed the protein to degradation pathway. […]

## O=C(O)c1ccc2c(c1)nc(Nc1cccc(Cl)c1)c1ccncc12 [CX-4945, 5-(3-chlorophenylamino)benzo[c][2,6]naphthyridine-8-carboxylic acid]
MLL1 chromatin occupancy
  MLL1 occupancy (genome-wide): global increase of MLL1 occupancy
[1]
  sensitivity of leukemic cell lines (cell number normalized to DMSO): MLL leukemia cells were generally more sensitive than non-MLL leukemic cells
[2]
  genome-wide binding of MLL-AFF1, AFF4 and ELL2: decrease
MLL-AF9 leukemia; C57BL/6 mice, 50 mg/kg or 75 mg/kg twice daily by oral gavage, twenty treatments from day 10
  leukemia progression and survival: significantly delayed the leukemia progression and improved the survival
MLL-AF9 leukemia; MLL-AF9 syngeneic mouse model, compared with vehicle control group
  weight of the mice: did not affect the weight of the mice
